Here are results for 51 molecules from patent US9150568B2, “Compositions and methods for modulating FXR” (NOVARTIS AG, priority 2010, dated 2015).

A word on the EC50: it is the midpoint of the concentration-response curve.

The target in this experiment is T1, human Farnesoid X Receptor (FXR) ligand binding domain (GST-FXR LBD) (Homo sapiens, UniProt Q96RI1).
T1 construct: purchased Invitrogen
T1 sequence (Q96RI1 193-472 isoform Q96RI1-2): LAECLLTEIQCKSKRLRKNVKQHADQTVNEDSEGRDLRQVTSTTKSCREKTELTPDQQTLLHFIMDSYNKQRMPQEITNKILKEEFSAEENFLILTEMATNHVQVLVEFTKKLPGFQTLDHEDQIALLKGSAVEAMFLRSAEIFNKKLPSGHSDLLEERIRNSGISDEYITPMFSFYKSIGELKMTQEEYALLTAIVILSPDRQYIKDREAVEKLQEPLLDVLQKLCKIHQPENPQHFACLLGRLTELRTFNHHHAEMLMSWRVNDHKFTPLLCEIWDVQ
Put plainly: Human GST-FXR LBD co-activator interaction assay (HTRF). It is filed as biochemical. The following applies: GST-FXR LBD / biotin-SRC-1 peptide FRET; response relative to GW4064; read-out: FXR Co-activator interaction assay (EC50). In a few lines:
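FRET (HTRF) read-out of ligand-induced binding between GST-FXR LBD and an SRC-1 peptide, detected with anti-GST cryptate and streptavidin-XL665 in buffer with 50 mM KF. Response % was normalized to DMSO and to the maximal GW4064 response. EC50 came from a four-parameter fit.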
Background: In TR-FRET formats the signal depends on donor and acceptor labels being close together.
In the case of `O=C(O)c1ccc2nc(N3C4CC[C@H]3C[C@H](OCc3c(-c5c(F)cccc5F)noc3C3CC3)C4)sc2c1` [Example 6-5B], the EC50 was found to be 5.6 nM. Then `Cc1nc(N2[C@@H]3CC[C@H]2C[C@@H](OCc2c(-c4c(F)cccc4F)noc2C2CC2)C3)ccc1C(=O)O` [Example 30-47], with 120 nM; and `O=C(O)c1cnc(N2C3CC[C@H]2CC(OCc2c(-c4ccccc4C(F)(F)F)noc2C2CC2)C3)s1` (stereo partly drawn) [Example 30-76], with 16 nM. As to `Cc1c(N2C3CC[C@H]2CC(OCc2c(-c4ccccc4Cl)noc2C2CC2)C3)ccc2oc(C(=O)O)cc12` (stereo partly drawn) [Example 28-9], the EC50 is 0.3 nM. The figure for `Cc1nc(N2[C@@H]3CC[C@H]2C[C@@H](OCc2c(-c4cccc(F)c4)noc2C2CC2)C3)ccc1C(=O)O` [Example 30-50] is 700 nM. The figure for `COc1cc(C(=O)O)cc2sc(N3C4CC[C@H]3CC(OCc3c(-c5c(F)cccc5Cl)noc3C3CC3)C4)nc12` (stereo partly drawn) [Example 30-17] is 0.7 nM.

Regarding `O=C(O)c1ccnc(N2C3CC[C@H]2CC(OCc2c(-c4ccccc4C(F)(F)F)noc2C2CC2)C3)c1` (stereo partly drawn) [Example 20B, 2-(3-((5-cyclopropyl-3-(2-(trifluoromethyl)phenyl)isoxazol-4-yl)methox)-8-azabicyclo[3.2.1]octan-8-yl)isonicotinic acid], the EC50 is 330 nM. The figure for `COC(=O)c1cc(C)nc(N2C3CC[C@H]2CC(OCc2c(-c4c(F)cccc4F)noc2C2CC2)C3)n1` (stereo partly drawn) [Example 22-18A] is 43 nM; for `COC(=O)c1cc(C)c2nc(N3[C@@H]4CC[C@H]3C[C@@H](OCc3c(-c5c(F)cccc5F)noc3C3CC3)C4)sc2c1` [Example 30-32] it is 149 nM; for `COC(=O)Cc1ccc(N2C3CC[C@H]2C[C@H](OCc2c(-c4ccccc4OC(F)(F)F)noc2C2CC2)C3)nc1` [Example 19-1A] it is 180 nM.

Regarding `Cc1cc(C(=O)O)nc(N2C3CC[C@H]2C[C@H](OCc2c(-c4ccccc4OC(F)(F)F)noc2C2CC2)C3)n1` [Example 18-7B], the concentration for a half-maximal effect (EC50) is 2 nM. Then `O=C(O)c1ccc(N2C3CC[C@H]2CC(OCc2c(-c4ccccc4OC(F)(F)F)noc2C2CC2)C3)c(F)c1` (stereo in doubt) [Example 23B, 4-(3-((5-cyclopropyl-3-(2-(trifluoromethoxy)phenyl)isoxazol-4-yl)methoxy)-8-azabicyclo[3.2.1]octan-8-yl)-3-fluorobenzoic acid], with 4 nM; and `COC(=O)c1ccnc(N2C3CC[C@H]2CC(OCc2c(-c4ccccc4OC(F)F)noc2C2CC2)C3)n1` (stereo partly drawn) [Example 22-2A], with 60 nM; and `COC(=O)c1cncc(N2C3CC[C@H]2C[C@H](OCc2c(-c4ccccc4OC(F)(F)F)noc2C2CC2)C3)n1` [Example 19-5A], with 200 nM.

For `O=C(O)c1ccc2nc(N3C4CC[C@H]3CC(OCc3c(-c5ccccc5C(F)(F)F)noc3C3CC3)C4)ccc2c1` (stereo partly drawn) [Example 30-54], the EC50 stood at 16 nM.

With `Cc1cc(C(=O)O)cc2sc(N3C4CC[C@H]3CC(OCc3c(-c5ccccc5F)noc3C3CC3)C4)nc12` (stereo partly drawn) [Example 30-34], the EC50 stood at 1.8 nM. Then `O=C(O)c1ccc2nc(N3C4CC[C@H]3C[C@H](OCc3c(C5CCCCC5C(F)(F)F)noc3C3CC3)C4)sc2c1` (stereo in doubt) [Example 7B, 2-(3-((5-cyclopropyl-3-((trans)-2-(trifluoromethyl)cyclohexyl)isoxazol-4-yl)methoxy)-8-azabicyclo[3.2.1]octan-8-yl)benzo[d]thiazole-6-carboxylic acid], with 16 nM; and `COC(=O)c1cnc(N2C3CC[C@H]2CC(OCc2c(-c4ccccc4OC(F)F)noc2C2CC2)C3)cc1C(F)(F)F` (stereo partly drawn) [Example 22-1A], with 530 nM; and `O=C(O)c1cnc(N2C3CC[C@H]2CC(OCc2c(-c4ccccc4OC(F)F)noc2C2CC2)C3)cc1C(F)(F)F` (stereo partly drawn) [Example 22-1B], with 20 nM. Regarding `COC(=O)c1cnc(N2C3CC[C@H]2CC(OCc2c(-c4ccccc4OC(F)F)noc2C2CC2)C3)cc1C` (stereo partly drawn) [Example 22-4A], the EC50 was found to be 20 nM. Then `Cc1cc(C(=O)O)cnc1N1C2CC[C@H]1CC(OCc1c(-c3ccccc3OC(F)F)noc1C1CC1)C2` (stereo partly drawn) [Example 22-7B], with 5 nM.

With `Cn1c(C(=O)O)cc2cc(N3C4CC[C@H]3CC(OCc3c(-c5ccccc5OC(F)(F)F)noc3C3CC3)C4)ccc21` (stereo partly drawn) [Example 28-19], the EC50 was 1.5 nM.

As to `COC(=O)c1ccc(N2[C@@H]3CC[C@H]2C[C@@H](OCc2c(-c4c(F)cccc4F)noc2C2CC2)C3)nc1` [Example 22-13A], the EC50 stood at 80 nM.

In the case of `COc1cc(C(=O)O)cc2sc(N3C4CC[C@H]3CC(OCc3c(-c5ccccc5C)noc3C3CC3)C4)nc12` (stereo partly drawn) [Example 30-5], the EC50 was 0.4 nM. The figure for `Cn1nc(C(=O)O)c2ccc(N3[C@@H]4CC[C@H]3C[C@@H](OCc3c(-c5ccccc5C(F)(F)F)noc3C3CC3)C4)cc21` [Example 28-26] is 1.2 nM; for `CC1(C)CCC(c2noc(C3CC3)c2CO[C@@H]2CC3CC[C@@H](C2)N3c2nc3ccc(C(=O)O)cc3s2)CC1` [Example 8-3] it is 18 nM; for `COC(=O)c1cc(F)c2nc(N3C4CC[C@H]3CC(OCc3c(-c5ccccc5C(F)(F)F)noc3C3CC3)C4)sc2c1` (stereo partly drawn) [Example 1-2A] it is 28 nM. The figure for `O=C(O)c1cc(F)c2nc(N3C4CC[C@H]3C[C@H](OCc3c(-c5ccccc5OC(F)F)noc3C3CC3)C4)sc2c1` [Example 6-3B] is 0.27 nM.

With `COc1cc(C(=O)O)cc2sc(N3[C@@H]4CC[C@H]3C[C@@H](OCc3c(-c5ccccc5Cl)noc3C3CC3)C4)nc12` [Example 30-20], the EC50 was 0.74 nM. Then `Cc1c(N2C3CC[C@H]2CC(OCc2c(-c4c(F)cccc4F)noc2C2CC2)C3)ccc2oc(C(=O)O)cc12` (stereo partly drawn) [Example 28-10], with 0.9 nM.

For `O=C(O)c1cnc(N2C3CC[C@H]2CC(OCc2c(-c4ccccc4OC(F)(F)F)noc2C2CC2)C3)s1` (stereo partly drawn) [Example 30-75], the EC50 worked out at 17 nM. Consider `O=C(O)c1cc(F)c2nc(N3[C@@H]4CC[C@H]3C[C@@H](OCc3c(C5CC6(CC6)C5)noc3C3CC3)C4)sc2c1` [Example 29-4], for which the EC50 was 11 nM.

For `COc1cc(C(=O)O)cc2sc(N3C4CC[C@H]3C[C@H](OCc3c(-c5ccccc5OC(F)F)noc3C3CC3)C4)nc12` [Example 6-4], the half-maximal effective concentration (EC50) was determined as 0.18 nM. The figure for `O=C(O)c1ccc(N2[C@@H]3CC[C@H]2C[C@@H](OCc2c(-c4cccc(F)c4F)noc2C2CC2)C3)nc1` [Example 30-65] is 86 nM; for `NC(=O)c1cc(F)c2nc(N3C4CC[C@H]3C[C@H](OCc3c(-c5ccccc5OC(F)(F)F)noc3C3CC3)C4)sc2c1` [Example 5-1] it is 7.6 nM; for `O=C(O)c1cnc(N2C3CC[C@H]2C[C@H](OCc2c(-c4ccccc4OC(F)(F)F)noc2C2CC2)C3)nc1C(F)(F)F` [Example 19-2B] it is 20 nM. The figure for `O=C(O)c1cc(F)c(N2C3CC[C@H]2CC(OCc2c(-c4ccccc4OC(F)(F)F)noc2C2CC2)C3)c(F)c1` (stereo partly drawn) [Example 24-1B] is 8 nM; for `COC(=O)c1cnc(N2C3CC[C@H]2C[C@H](OCc2c(-c4ccccc4OC(F)(F)F)noc2C2CC2)C3)c(C)c1` [Example 19-4A] it is 70 nM. With `Cc1c(N2[C@@H]3CC[C@H]2C[C@@H](OCc2c(-c4ccccc4C4CC4)noc2C2CC2)C3)ccc2oc(C(=O)O)cc12` [Example 28-8], the EC50 came to 10.4 nM. In the case of `Cc1cc(C(=O)O)cnc1N1[C@@H]2CC[C@H]1C[C@@H](OCc1c(-c3c(F)cccc3F)noc1C1CC1)C2` [Example 30-25], the 50% effective concentration (EC50) is 3 nM. Then `Cc1cc(C(=O)O)nc(N2C3CC[C@H]2CC(OCc2c(-c4c(C)cccc4C)noc2C2CC2)C3)n1` (stereo partly drawn) [Example 30-16], with 24 nM; and `COC(=O)c1cnc(N2[C@@H]3CC[C@H]2C[C@@H](OCc2c(-c4c(F)cccc4F)noc2C2CC2)C3)c(C2CC2)c1` [Example 22-17A], with 65 nM; and `O=C(O)c1cc(F)c2nc(N3C4CC[C@H]3C[C@H](OCc3c(C5CCC6(CC5)CC6)noc3C3CC3)C4)sc2c1` [Example 13-2B], with 0.53 nM. `O=C(O)c1ccc2nc(N3C4CC[C@H]3CC(OCc3c(-c5ccc(F)cc5F)noc3C3CC3)C4)sc2c1` (stereo partly drawn) [Example 30-61]: the EC50 worked out at 2 nM.

Take `O=C(O)c1cnc(N2C3CC[C@H]2C[C@H](OCc2c(-c4ccccc4OC(F)(F)F)noc2C2CC2)C3)cn1` [Example 18-5B]: the EC50 was determined as 3 nM. In the case of `Cc1cc(C(=O)O)cc2sc(N3[C@@H]4CC[C@H]3C[C@@H](OCc3c(-c5ccc(F)cc5F)noc3C3CC3)C4)nc12` [Example 30-38], the concentration giving a half-maximal response (EC50) was determined as 1.8 nM. As for `Cc1cc(C(N)=O)nc(N2C3CC[C@H]2C[C@H](OCc2c(-c4ccccc4OC(F)F)noc2C2CC2)C3)n1` [Example 5-3], the 50% effective concentration (EC50) worked out at 20 nM. Take `O=C(O)c1cc(F)c2nc(N3C4CC[C@H]3C[C@H](OCc3c(C5CCCCC5C(F)(F)F)noc3C3CC3)C4)sc2c1` (stereo partly drawn) [Example 8-1]: the EC50 amounted to 4 nM.

Turning to `COC(=O)c1cnc(N2C3CC[C@H]2C[C@H](OCc2c(-c4ccccc4OC(F)(F)F)noc2C2CC2)C3)cc1C(F)(F)F` [Example 19-3A], the concentration giving a half-maximal response (EC50) is 90 nM. As to `Cc1cc(C(=O)O)nc(N2C3CC[C@H]2CC(OCc2c(-c4cccc(F)c4)noc2C2CC2)C3)n1` (stereo partly drawn) [Example 30-10], the half-maximal effective concentration (EC50) was 480 nM. The figure for `O=C(O)c1cc(F)c2nc(N3C4CC[C@H]3C[C@H](OCc3c(C5CC5C(F)(F)F)noc3C3CC3)C4)sc2c1` (mixture of isomers) [Example 11] is 30 nM.
